Patent publication US20230136878A1, “CARDIOMYOCYTE PURIFICATION METHOD” (ORIZURU THERAPEUTICS, INC., priority 2020, published 2023)

Experiments:
[1] = test system: cells positive to any of CD326, CD31, CD49a (non-cardiomyocytes: END, EC, SMC) in cell population induced to differentiate from human iPS cells; assay: Non-cardiomyocyte marker-positive cell rate (non-cardiomyocyte rate) measurement by flow cytometry after compound treatment of embryoid bodies
Experimental: After tapping the cell pellets, PBS containing 1% BSA was added by 1 mL, and the mixture was centrifuged at 300×g for 3 min. The supernatant was removed. The cells were stained with APCFire750-labeled anti-CD326 antibody, PE-labeled anti-CD49a antibody, BV605-labeled anti-CD31 antibody, and DAPI in PBS containing 1% BSA. DAPI-positive dead cells were removed, and the separation of cell population and the ratio of each cell population were measured by measuring the signal amount of each fluorescence dye in nuclear cells.
(§1) On day 8 of differentiation induction, the embryoid bodies were collected in one centrifugal tube, allowed to stand at room temperature for several minutes to cause sedimentation of the embryoid bodies. The supernatant was removed with an aspirator, and a medium was added to replace the medium. The embryoid body suspension was transferred to a 6-well plate, and a 1/100 amount of an evaluation compound (compounds and concentrations of Experiment Nos. 2 to 8 shown in Table 1 below) was added at a concentration of 100 times the final concentration to each well. The plate was stirred to perform cell culture.
(§2) On day 10 of differentiation induction, the 6-well plate was stood for several minutes while tilting to allow embryoid bodies to form sediments. The supernatant was removed with an aspirator, and a medium was added to replace the medium in each well. […] On day 13 of differentiation induction, the 6-well plate was tilted to allow embryoid bodies to form sediments, and the embryoid bodies were transferred to a 1.5 mL tube with a pipette provided with a chip for wide-diameter 1 mL pipette. Dissociation into single cells was performed according to the staining of non-cardiomyocytes by cell surface marker, and a single cell suspension was used for the cardiomyocyte marker-positive cell rate measurement, and non-cardiomyocyte marker-positive cell rate measurement.
Using an unfrozen single cell suspension, the staining, measurement, and analysis were performed according to the staining of non-cardiomyocytes by cell surface marker.

[2] = test system: sarcomeric α-actinin-positive cells (cardiomyocytes) in cell population induced to differentiate from human iPS cells; assay: Cardiac muscle marker-positive cell rate (cardiomyocyte rate) measurement by flow cytometry after compound treatment of embryoid bodies; conditions: for cardiomyocyte rate (Actinin-positive cell rate) as compared with no treatment with compound: Experimental Example 1, FIG. 4, compounds added day 8 and 10, measured day 13, AMG337 2 μM, ASP5878 0.02/0.05/0.12 μM, BGJ398 0.2/1 μM; for cardiomyocyte rate (sarcomeric α-actinin-positive cell rate) as compared with no treatment: Experimental Example 4, FIG. 8, Foretinib 0.5 μM added day 8, 10, 13
Experimental: VEGF was not added after Day 8.
as §1, §2
The above-mentioned single cell suspension was dispensed to a 1.5 mL tube, centrifuged at 400 g for 3 min, and the supernatant was removed. Cell pellets were resuspended in Cytofix/Cytoperm Fixation/Permeabilization Solution (BD), and fixed by allowing to stand at room temperature for 15 min. To each tube was added 1×Perm/Wash Buffer (1 mL), and the mixture was centrifuged at 1500 g for 3 min, and the supernatant was removed to wash the cells. After tapping the cell pellets, 1×Perm/Wash Buffer (1 mL) was added, and a similar operation was performed to wash the cells. After tapping the cell pellets, the cell pellets were stained with fluorescence dye Alexa647 using an anti-sarcomeric α-actinin antibody in 1×Perm/Wash Buffer containing 1% BSA, and DNA staining was further performed using DAPI (4′,6-Diamidino-2-phenylindole Dihydrochloride). The Sarcomeric α-actinin-positive cell rate was analyzed by measuring the fluorescence signal amount of Alexa647 in the cell population excluding dead cells (cells with DNA amount of Sub-G1) by using a flow cytometer.

[3] = test system: cell population induced to differentiate into cardiomyocytes from human iPS cells; assay: Recovered cell count measurement (cell counter NC-200) after compound treatment of embryoid bodies; format: cell-based
Experimental: The above-mentioned single cell suspension was 5-fold diluted by adding to IMDM medium prepared in a 1.5 mL tube, and mixed by inversion, and the cell count was measured with a cell counter NC-200 (Chemometec).

[4] = Experimental Example 1, FIG. 5, iPS line from PBMC LP_167, compounds added day 8 and 10, measured day 13, compound A 0.5 μM, AMG337 2 μM, ASP5878 0.02/0.05/0.12 μM, BGJ398 0.2/1 μM
[5] = Experimental Example 3, FIG. 7, iPS line from PBMC LP_140, added day 8, 10, 13, measured day 17, compound A 0.5 μM, Foretinib 2 μM, ZM323881 2 μM, Crenolanib 1 μM, Crizotinib 2 μM
[6] = Experimental Example 7, FIG. 16, clinical iPS cell line produced by CiRA, added day 8, 10, 13, measured day 17, compound A 0.5 μM, Foretinib 2/0.5 μM, ZM323881 2 μM, CP-673451 1/0.3 μM, Crizotinib 2/0.5 μM
[7] = iPS line from PBMC LP_167, compound A 0.5 μM
[8] = iPS line from PBMC LP_140, compound A 0.5 μM, measured day 17
[9] = Experimental Example 7, FIG. 15, clinical iPS cell line produced by CiRA, added day 8, 10, 13, measured day 17, compound A 0.5 μM, Foretinib 2/0.5 μM, ZM323881 2 μM, CP-673451 1/0.3 μM, Crizotinib 2/0.5 μM
[10] = Experimental Example 9, FIG. 20, n=4, clinical iPS cell line produced by CiRA, Foretinib 0.5 μM, Crizotinib 2 μM added day 8, 10, 13, measured day 17
[11] = Experimental Example 9, FIG. 19, clinical iPS cell line produced by CiRA, Foretinib 0.5 μM, Crizotinib 2 μM added day 8, 10, 13, measured day 17
[12] = Experimental Example 5, FIG. 10, n=4, iPS line from PBMC LP_140, Crenolanib 1 μM, compound B 2 μM added day 8, 10, 13, ASP5878 0.02 μM added day 8 and 10, measured day 16

| Structure (SMILES) | non-cardiomyocyte rate (rate of cells positive to any of CD326, CD31, CD49a) as compared with no treatment with compound [1, 4] | non-cardiomyocyte rate (rate of cells positive to any of CD326, CD31, CD49a) as compared with no treatment with compound [1, 5] | non-cardiomyocyte rate as compared with no treatment with compound [1, 6] | cardiomyocyte rate (Actinin-positive cell rate) as compared with no treatment with compound [2, 7] | cardiomyocyte rate (sarcomeric α-actinin-positive cell rate) as compared with no treatment with compound [2, 9] | also measured |
| --- | --- | --- | --- | --- | --- | --- |
| Cc1cc(C(=O)Nc2cc(Oc3ccc4nc(NC(=O)C5CC5)cn4n3)ccc2C)n(C)n1 [compound A, N-[5-({2-[(cyclopropanecarbonyl)amino]imidazo[1,2-b]pyridazin-6-yl}oxy)-2-methylphenyl]-1,3-dimethyl-1H-pyrazole-5-carboxamide] | decreased | decreased | decreased | increased | increased | non-cardiomyocyte rate as compared with no treatment with compound ([1]; Experimental Example 6, FIG. 13, n=4, clinical iPS cell line produced by CiRA, compound A 0.2 μM added day 14, 17, 21): decreased; cardiomyocyte rate (sarcomeric α-actinin-positive cell rate) as compared with no treatment [2, 8]: increased; cardiomyocyte rate as compared with no treatment with compound ([2]; Experimental Example 6, FIG. 12, n=4, clinical iPS cell line produced by CiRA, compound A 0.2 μM added day 14, 17, 21): increased; number of cells recovered as compared with no treatment (in words) ([3]; Experimental Example 4, FIG. 9, iPS line from PBMC LP_140, compound A 0.5 μM added day 8, 10, 13, day 17): almost the same number of cells was recovered; number of recovered cells depending on the presence or absence of the compound treatment ([3]; Experimental Example 6, FIG. 14, n=4, clinical iPS cell line produced by CiRA, compound A 0.2 μM added day 14, 17, 21): did not change much |
| C[C@@H](Oc1cc(-c2cnn(C3CCNCC3)c2)cnc1N)c1c(Cl)ccc(F)c1Cl [Crizotinib] | – | decreased | decreased | – | increased | non-cardiomyocyte rate as compared with no treatment with compound [1, 10]: decreased; cardiomyocyte rate (sarcomeric α-actinin-positive cell rate) as compared with no treatment with compound [2, 11]: increased; number of cells recovered as compared with no treatment with compound ([3]; Experimental Example 9, FIG. 21, n=4, clinical iPS cell line produced by CiRA, Crizotinib 2 μM added day 8, 10, 13, day 17): About 80% |
| Cc1cc(F)c(Nc2ncnc3cc(OCc4ccccc4)ccc23)cc1O [ZM323881] | – | decreased | decreased | – | increased | – |
| COCCOc1cnc2ccn([C@H](C)c3nnc4c(F)cc(-c5cnn(C)c5)cn34)c(=O)c2c1 [AMG337] | decreased | – | – | increased | – | – |
| CC1(COc2ccc3c(c2)ncn3-c2ccc3cccc(N4CCC(N)CC4)c3n2)COC1 [Crenolanib] | – | decreased | – | – | – | non-cardiomyocyte rate ([1]; Experimental Example 8, FIG. 18, clinical iPS cell line produced by CiRA, Crenolanib 0.2 or 1 μM, start of addition day 8, 10 or 13 (Table 8), measured day 23): decreased; cardiomyocyte rate (sarcomeric α-actinin-positive cell rate) as compared with no treatment with compound [2, 12]: increased; cardiomyocyte rate (sarcomeric α-actinin-positive cell rate) ([2]; Experimental Example 8, FIG. 17, clinical iPS cell line produced by CiRA, Crenolanib 0.2 or 1 μM, start of addition day 8, 10 or 13 (Table 8), measured day 23): increased |
| CCN1CCN(c2ccc(Nc3cc(N(C)C(=O)Nc4c(Cl)c(OC)cc(OC)c4Cl)ncn3)cc2)CC1 [BGJ398] | decreased | – | – | increased | – | – |
| COCCOc1ccc2c(c1)ncn2-c1ccc2cccc(N3CCC(N)CC3)c2n1 [CP-673451] | – | – | decreased | – | increased | – |
| COc1cc2nccc(Oc3ccc(NC(=O)C4(C(=O)Nc5ccc(F)cc5)CC4)cc3F)c2cc1OC [compound B, N-{4-[(6,7-dimethoxyquinolin-4-yl)oxy]-3-fluorophenyl}-N′-(4-fluorophenyl)cyclopropane-1,1-dicarboxamide] | – | – | – | – | – | cardiomyocyte rate (sarcomeric α-actinin-positive cell rate) as compared with no treatment with compound [2, 12]: increased |
| COc1cc2c(Oc3ccc(NC(=O)C4(C(=O)Nc5ccc(F)cc5)CC4)cc3F)ccnc2cc1OCCCN1CCOCC1 [Foretinib] | – | decreased | decreased | – | increased | non-cardiomyocyte rate as compared with no treatment with compound [1, 10]: decreased; cardiomyocyte rate (sarcomeric α-actinin-positive cell rate) as compared with no treatment with compound ([2]; Experimental Example 2, FIG. 6, n=4, iPS line from PBMC LP_167, Foretinib 2 μM added day 8, 10, 13, ASP5878 0.02 μM added day 8 and 10, measured day 16): increased; cardiomyocyte rate (sarcomeric α-actinin-positive cell rate) as compared with no treatment [2, 8]: increased; cardiomyocyte rate (sarcomeric α-actinin-positive cell rate) as compared with no treatment with compound [2, 11]: increased; number of cells recovered as compared with no treatment ([3]; Experimental Example 4, FIG. 9, iPS line from PBMC LP_140, Foretinib 0.5 μM added day 8, 10, 13, day 17): about 70%; number of cells recovered as compared with no treatment with compound (in words) ([3]; Experimental Example 9, FIG. 21, n=4, clinical iPS cell line produced by CiRA, Foretinib 0.5 μM added day 8, 10, 13, day 17): almost the same number of cells was recovered |
